Measurements taken from US4131681A, “Antiallergic method” (Fujisawa Pharmaceutical Co., Ltd., priority 1977, dated 1978).
Counter-ions that a name gives are not always drawn.

Legend:
[1] = system: Bradykinin-induced bronchoconstruction; assay: Antagonism to Bradykinin-induced bronchoconstruction in guinea-pigs; assay type: in vivo, guinea-pig (male Hartley); details: for Inhibitory effect of Bradykinin-induced bronchoconstruction in guinea-pig: 30 seconds before Bradykinin; for ED50: Cavia porcellus, iv, 30 seconds before Bradykinin 16 mg/kg i.v., Litchfield-Wilcoxon
Description: (5) Antagonism to Bradykinin-induced bronchoconstruction in guinea-pigs
Ten male Hartley strain guinea-pigs were used for each dose. The animals were immobilized with an intraperitoneal dose of 100 mg/kg of gallamine. The trachea was cannulated and the lungs were dilated with air by a respiration pump at the rate of 3 ml/time and 60.2 times/minute. Bradykinin 16 mg/kg was given intravenously and bronchoconstruction induced thereby was measured by Tanbule Strain gauge according to Konzett-Rossler method. The inhibitory effect against bronchoconstruction was determined in comparison with the control group and the treated group, and the ED50 value was measured according to Litchfield-Wilcoxon method. Each test compound was given intravenously 30 seconds before administration of the Bradykinin.

[2] = system: passive cutaneous anaphylaxis (P.C.A.) reaction; assay: Antagonism to passive cutaneous anaphylaxis (P.C.A.) in guinea-pig; assay type: in vivo, guinea-pig (male Hartley); details: for ED50: Cavia porcellus
Description: (b) Guinea-pig antiserum against egg albumin
Five mg of egg albumin emulsified in 0.5 ml of physiological saline and 0.5 ml of Freund's incomplete adjuvant was used as the antigen.
The amulsion was given subcutaneously in a single dose of 1 ml divided equally (0.25 ml) to the four foot pads of male Hartley strain guinea pigs, each weighing 250 to 300 g. Starting two weeks after dosing with the aforementioned emulsion, 0.1% egg albumin emulsified in physiological saline was given subcutaneously in equally divided (0.1 ml) doses of 0.4 ml once a week for 4 weeks to four sites on the backs of the test animals. Blood samples were collected from the carotid artery one week after the last injection, and centrifuged at 3000 r.p.m. at room temperature for 15 minutes. The antisera thus obtained were stored at -20° C.
(3) Antagonism to passive cutaneous anaphylaxis (P.C.A) in guinea-pig
Ten male Hartley strain guinea-pigs, weighing 300-350 g, were used for each dose. The animals were sensitized with 0.1 ml of the guinea-pig antiserum against egg albumin injected intracutaneously on the depilated backs of the animals. Four hours after injection of the antiserum, 1 ml of mixture of egg albumin […] and Evan's blue […] in physiological saline was injected intravenously. Thirty minutes after the injection of the antigen, the animals were sacrificed and the skin was removed. Each test compound was given orally 2 hours and intravenously 5 minutes before administration of the antigen. Each sensitized area of the skin was treated substantially in the same manner as that of the above mentioned test (2) to calculate ED50 value.

anaphylactic asthma = assay: Antagonism to anaphylactic asthma in guinea-pigs; assay type: in vivo, guinea-pig (male Hartley); details: for Inhibitory effect of anaphylactic asthma in guinea-pig: survival more than 2 hours after antigen spray
Acute toxicity in mouse = details: in vivo, 7 days
Description: (§1) (6) Acute toxicity in mouse and rat
(§2) Each ten male and female ICR-JCL strain mice and Sprague-Dawley-JCL strain rats were used for each dose.
(§3) Each test compound was given to animals in a form of suspension in 0.5% methyl cellose intraperitoneally, subcutaneously and orally. After administration, the incidence of the death was recorded for successive seven days. LD50 values were calculated by the method of Litchfield-Wilcoxon method.

[3] = system: passive cutaneous anaphylaxis (P.C.A.) reaction; assay: Antagonism to passive cutaneous anaphylaxis (P.C.A.) in rat; assay type: in vivo, rat (male Sprague-Dawley-JCL); details: for ED50: Rattus norvegicus
Description: (1) Preparation of antiserum
(a) Rat reaginic antiserum against egg albumin
One mg of egg albumin emulsified in 0.5 ml of B. pertussisdiphtheria mixed vaccine (Tanabe Seiyaku Company Ltd.) and 0.5 ml of Freund's incomplete adjuvant (Difco) was used as the antigen. The emulsion was given subcutaneously in a single dose of 1 ml divided equally (0.25 ml) to the four foot pads of male Sprague-Dawley JCL strain rats aged 6 weeks, each weighing 170-220 g. Blood samples were collected from the femoral artery 12 days after injection, and centifuged at 3000 r.p.m. at 4° C. for 15 minutes. The antisera thus obtained were stored at -20° C.
(2) antagonism to passive cutaneous anaphylaxis (P.C.A.) in rat
Ten male Sprague-Dawley-JCL strain rats, weighing 290-310 g, were used for each dose. The rat reaginic antiserum against egg albumin was used at a dilution 1:4. The animals were sensitized with 0.1 ml of the antiserum injected intracutaneously on the depilated backs of the rats. Fortyeight hours after the injection of the antiserum, 1 ml of mixture of egg albumin 5 mg and Evans' blue 5 mg in physiological saline 1 ml was injected intravenously. Thirty minutes after the injection of the antigen, animals were sacrificed and the skin was removed. To each sensitized area of the skin was added 10 ml of a 4:1 mixture of acetone and 2% solution of RBS-25 (Marumoto Industrial Co., Ltd.) to extract the dye and the mixture was allowed to stand for 16 hours, during of which the mixture was twice shaken for 30 minutes at 5th hour and 16th hour. It was further centrifuged at 2,000 r.p.m. for 15 minutes and the quantity of the dye in the supernatant solution was determined by colorimetry at […]. Each test compound was given orally 2 hours and intravenously 5 minutes before administration of the antigen. The inhibitory effect of each test compound was determined from the dye amounts measured in comparison with the control group and the treated group and the ED50 value was calculated according to Litchfield-Wilcoxon method.

Acute toxicity in rat = details: in vivo, 7 days
Description: as §1, §2, §3

[4] = iv, 5 min, i.v., 5 minutes before antigen
[5] = i.v., 4 mg/kg, 5 minutes before antigen
[6] = i.v., 16 mg/kg, 5 minutes before antigen
[7] = i.v., 64 mg/kg, 5 minutes before antigen
[8] = p.o., 32 mg/kg, 2 hours before antigen
[9] = p.o., 125 mg/kg, 2 hours before antigen
[10] = p.o., 500 mg/kg, 2 hours before antigen
[11] = iv, 5 min, i.v., 5 minutes before antigen, Litchfield-Wilcoxon

O=C(Cn1c(=O)sc2ccc(Cl)cc21)N1CCC(O)CC1 [Compound A, 3-(4-hydroxypiperidino)carbonylmethyl-5-chloro-2-benzothiazolinone]
Inhibitory effect of Bradykinin-induced bronchoconstruction in guinea-pig ([1]; 0.064 mg/kg i.v.): 12%
Inhibitory effect of Bradykinin-induced bronchoconstruction in guinea-pig ([1]; 0.25 mg/kg i.v.): 50%
Inhibitory effect of Bradykinin-induced bronchoconstruction in guinea-pig ([1]; 1 mg/kg i.v.): 89%
Inhibitory effect of Bradykinin-induced bronchoconstruction in guinea-pig ([1]; 4 mg/kg i.v.): 91%
ED50 [1]: 0.278 mg/kg
ED50 [2, 4]: 29.1 mg/kg
ED50 ([2]; po, 2 hours before antigen): 202 mg/kg
Inhibitory effect of P.C.A. reaction in guinea-pig [2, 5]: 15.5%
Inhibitory effect of P.C.A. reaction in guinea-pig [2, 6]: 32.9%
Inhibitory effect of P.C.A. reaction in guinea-pig [2, 7]: 68.9%
Inhibitory effect of P.C.A. reaction in guinea-pig [2, 8]: 33.5%
Inhibitory effect of P.C.A. reaction in guinea-pig [2, 9]: 31.7%
Inhibitory effect of P.C.A. reaction in guinea-pig [2, 10]: 67.4%
Inhibitory effect of anaphylactic asthma in guinea-pig (anaphylactic asthma; 4 mg/kg i.v.): 0%
Inhibitory effect of anaphylactic asthma in guinea-pig (anaphylactic asthma; 16 mg/kg i.v.): 90%
Inhibitory effect of anaphylactic asthma in guinea-pig (anaphylactic asthma; 64 mg/kg i.v.): 100%
ED50 (anaphylactic asthma; Cavia porcellus, iv, 2 h, i.v., anaphylactic asthma, Litchfield-Wilcoxon, read-out: ED50 (dose required for 50% protection from death)): ~8.5 mg/kg
LD50 at 168 h (Acute toxicity in mouse; ip, female): > 8000 mg/kg
LD50 at 168 h (Acute toxicity in mouse; ip, male): > 8000 mg/kg
LD50 at 168 h (Acute toxicity in mouse; po, female): > 8000 mg/kg
LD50 at 168 h (Acute toxicity in mouse; po, male): > 8000 mg/kg
LD50 at 168 h (Acute toxicity in mouse; sc, female): > 8000 mg/kg
LD50 at 168 h (Acute toxicity in mouse; sc, male): > 8000 mg/kg
ED50 [3, 11]: 56.6 mg/kg
ED50 ([3]; po, 2 hours before antigen, Litchfield-Wilcoxon): 348 mg/kg
Inhibitory effect of P.C.A. reaction in rat [3, 5]: 22.6%
Inhibitory effect of P.C.A. reaction in rat [3, 6]: 41.5%
Inhibitory effect of P.C.A. reaction in rat [3, 7]: 49.1%
Inhibitory effect of P.C.A. reaction in rat [3, 8]: 20.8%
Inhibitory effect of P.C.A. reaction in rat [3, 9]: 20.8%
Inhibitory effect of P.C.A. reaction in rat [3, 10]: 62.3%
LD50 at 168 h (Acute toxicity in rat; ip, female): 5800 mg/kg
LD50 at 168 h (Acute toxicity in rat; ip, male): 7110 mg/kg
LD50 at 168 h (Acute toxicity in rat; po, female): > 8000 mg/kg
LD50 at 168 h (Acute toxicity in rat; po, male): > 8000 mg/kg
LD50 at 168 h (Acute toxicity in rat; sc, female): > 8000 mg/kg
LD50 at 168 h (Acute toxicity in rat; sc, male): > 8000 mg/kg

O=C(O)c1cc(=O)c2c(OCC(O)COc3cccc4oc(C(=O)O)cc(=O)c34)cccc2o1 [Compound C, disodium chromoglycate]
Inhibitory effect of Bradykinin-induced bronchoconstruction in guinea-pig ([1]; 1 mg/kg i.v.): 12%
Inhibitory effect of Bradykinin-induced bronchoconstruction in guinea-pig ([1]; 4 mg/kg i.v.): 28%
Inhibitory effect of Bradykinin-induced bronchoconstruction in guinea-pig ([1]; 16 mg/kg i.v.): 24%
ED50 [1]: > 16 mg/kg
Inhibitory effect of P.C.A. reaction in guinea-pig [2, 5]: 11.4%
Inhibitory effect of P.C.A. reaction in guinea-pig [2, 6]: 18.4%
Inhibitory effect of P.C.A. reaction in guinea-pig [2, 7]: -2.2%
Inhibitory effect of P.C.A. reaction in guinea-pig [2, 8]: -25.4%
Inhibitory effect of P.C.A. reaction in guinea-pig [2, 9]: 24.6%
Inhibitory effect of anaphylactic asthma in guinea-pig (anaphylactic asthma; 4 mg/kg i.v.): 0%
Inhibitory effect of anaphylactic asthma in guinea-pig (anaphylactic asthma; 16 mg/kg i.v.): 0%
Inhibitory effect of anaphylactic asthma in guinea-pig (anaphylactic asthma; 64 mg/kg i.v.): 10%
ED50 (dose required for 50% protection from death) (anaphylactic asthma; i.v., anaphylactic asthma, Litchfield-Wilcoxon): No effect
LD50 at 168 h (Acute toxicity in mouse; po, female): > 11000 mg/kg
LD50 at 168 h (Acute toxicity in mouse; po, male): > 11000 mg/kg
ED50 [3, 11]: 73.2 mg/kg
Inhibitory effect of P.C.A. reaction in rat [3, 5]: 24.1%
Inhibitory effect of P.C.A. reaction in rat [3, 6]: 55.6%
Inhibitory effect of P.C.A. reaction in rat [3, 7]: 41.4%
Inhibitory effect of P.C.A. reaction in rat [3, 8]: -16.1%
Inhibitory effect of P.C.A. reaction in rat [3, 10]: 9.4%
ED50 (P.C.A. reaction in rat) ([3]; p.o., 2 hours before antigen, Litchfield-Wilcoxon): No effect
LD50 at 168 h (Acute toxicity in rat; po, female): > 11000 mg/kg
LD50 at 168 h (Acute toxicity in rat; po, male): > 11000 mg/kg

O=C(Cn1c(=O)sc2ccc(Cl)cc21)N1CCN(CCO)CC1 [Compound D, 3-[4-(2-hydroxyethyl)-1-piperazinylcarbonylmethyl]-5-chloro-2-benzothiazolinone hydrochloride]
Inhibitory effect of Bradykinin-induced bronchoconstruction in guinea-pig ([1]; 0.064 mg/kg i.v.): -14%
Inhibitory effect of Bradykinin-induced bronchoconstruction in guinea-pig ([1]; 0.25 mg/kg i.v.): 27%
Inhibitory effect of Bradykinin-induced bronchoconstruction in guinea-pig ([1]; 1 mg/kg i.v.): 44%
Inhibitory effect of Bradykinin-induced bronchoconstruction in guinea-pig ([1]; 4 mg/kg i.v.): 94%
Inhibitory effect of Bradykinin-induced bronchoconstruction in guinea-pig ([1]; 16 mg/kg i.v.): 99%
ED50 [1]: 0.813 mg/kg
ED50 [2, 4]: 46.8 mg/kg
ED50 ([2]; po, 2 hours before antigen): 594 mg/kg
Inhibitory effect of P.C.A. reaction in guinea-pig [2, 5]: 7.4%
Inhibitory effect of P.C.A. reaction in guinea-pig [2, 6]: 19.4%
Inhibitory effect of P.C.A. reaction in guinea-pig [2, 7]: 60.6%
Inhibitory effect of P.C.A. reaction in guinea-pig [2, 8]: -8.2%
Inhibitory effect of P.C.A. reaction in guinea-pig [2, 9]: 6.1%
Inhibitory effect of P.C.A. reaction in guinea-pig [2, 10]: 43.4%
LD50 at 168 h (Acute toxicity in mouse; po, female): 622 mg/kg
LD50 at 168 h (Acute toxicity in mouse; po, male): 564 mg/kg
LD50 at 168 h (Acute toxicity in rat; po, female): 3800 mg/kg
